Like-named read-outs stand apart in the source and are kept apart here.
Legend:
[1] = tested on: Human monocytes; details: GPI 300 uM, activated monocytes, 24 hours of treatment (FIG. 6)
From the text: Human monocytes were isolated from fresh buffy coats of healthy blood donors, kindly provided by the Centro Immunotrasfusionale, Hospital of Ferrara, Italy, through a Ficoll-Paque™ PLUS gradient followed by Percoll™. PBMCs were firstly obtained by 1.077 g/ML Ficoll-Paque™ PLUS (GE Healthcare Life Sciences, Little Chalfont, UK) density gradient separation according to the manufacturer's protocol. After collecting the mononuclear cells located at the interface between Ficoll and plasma-medium layer, these were washed with PBS, then layered over a solution of 1.130 g/mL Percoll™ (GE Healthcare Life Sciences) before centrifugation at 1650 rpm for 30 min at 4° C. The monocyte layer, which appeared cloudy and occasionally with few red spots, was carefully aspirated and washed with PBS to remove traces of Percoll™. The harvested monocytes were then suspended in RPMI 1640 medium (EuroClone) containing 2% FBS, and incubated at 37° C. and 5% CO2. After 1 h, non-adherent cells including residual lymphocytes were removed, and monocytes were detached using a cell scraper, then seeded onto plastic culture wells.
Treatment with GPI: 300 uM. […]
Measurements of protein production or miRNA levels were expressed as fold increase over the respective control (unstimulated) cells, and are means (SD) of triplicates from one representative experiment of 4 experiments performed with cells from different donors. […]

[2] = tested on: Human monocytes; details: GPI 300 uM, 24 hours of treatment (FIG. 5)
From the text: (§1) The purpose of the experiments conducted is the in vitro evaluation of the anti-inflammatory activity and of the immune modulating power in the response to bacterial or viral activation, of monocytes activated and treated with GPI. Measurements of protein production or miRNA levels were expressed as an increase relative to the respective control (unstimulated) cells.
Human monocytes were isolated from fresh buffy coats of healthy blood donors, kindly provided by the Centro Immunotrasfusionale, Hospital of Ferrara, Italy, through a Ficoll-Paque™ PLUS gradient followed by Percoll™. […]
Total RNA was extracted from cultures after 12 and 24 h using the total RNA purification Plus kit, The RNA quality and concentration of the samples were measured with the NanoDrop™ ND-1000 (Thermo Fisher Scientific). […]
Real-time PCR was performed according to the user's manual of the Inflammatory RT^2 profiler PCR Array (Qiagen) with a StepOnePlus™ Real-Time PCR System (Applied Biosystems™, Foster City, CA, USA) and using RT^2 SYBR Green ROX FAST Master Mix (Qiagen). Thermal cycling and fluorescence detection were as follows: 95° C. for 10 min, followed by 40 cycles of 95° C. for 15 s, and 60° C. for 1 min. […] Data were analyzed using the Web-based PCR array data analysis software, which is available at https://www.qiagen.com/it/shop/genes-and-pathways/data-analysis-center-overview-page/. […]

[3] = tested on: Human monocytes; details: GPI 300 uM; for protein expression level (fold increase over control cells): LPS stimulus
From the text: as §1
Human monocytes were isolated from fresh buffy coats of healthy blood donors, kindly provided by the Centro Immunotrasfusionale, Hospital of Ferrara, Italy, through a Ficoll-Paque™ PLUS gradient followed by Percoll™. PBMCs were firstly obtained by 1.077 g/ML Ficoll-Paque™ PLUS (GE Healthcare Life Sciences, Little Chalfont, UK) density gradient separation according to the manufacturer's protocol. After collecting the mononuclear cells located at the interface between Ficoll and plasma-medium layer, these were washed with PBS, then layered over a solution of 1.130 g/mL Percoll™ (GE Healthcare Life Sciences) before centrifugation at 1650 rpm for 30 min at 4° C. The monocyte layer, which appeared cloudy and occasionally with few red spots, was carefully aspirated and washed with PBS to remove traces of Percoll™. The harvested monocytes were then suspended in RPMI 1640 medium (EuroClone) containing 2% FBS, and incubated at 37° C. and 5% CO2. After 1 h, non-adherent cells including residual lymphocytes were removed, and monocytes were detached using a cell scraper, then seeded onto plastic culture wells. […]
The supernatants of the cultures after 5 and 24 h were collected, centrifuged at 400×g for 10 min at 4° C., then analyzed for TF HGF, PGE-2 and IL-10 production using commercial ELISA kits (Thermo Fisher Scientific) according to the manufacturer's instructions. […]
Measurements of protein production or miRNA levels were expressed as fold increase over the respective control (unstimulated) cells, and are means (SD) of triplicates from one representative experiment of 4 experiments performed with cells from different donors.

L-α-glycero-phospho-D-myo-inositol [GPI]
production of IL12 and 23 during inflammation [1]: reduction
miRNA level related to M1 (inflammatory) or M2 (antiinflammatory) commitment [2]: inhibitory effects
protein expression level (fold increase over control cells) ([3]; 5 hours of treatment (FIG. 3)): inhibitory effects
protein expression level (fold increase over control cells) ([3]; 24 hours of treatment (FIG. 4)): inhibitory effects
inflammatory cytokine production ([3]; monocytes in inflammation / LPS sepsis / viral infection mimicking environment): reduce
